How the values were obtained:
AChE from electric eel = biological target: T1, AChE from electric eel (Electrophorus electricus, UniProt O42275); experiment: biochemical; assay type: biochemical; conditions: isolated compounds; mean ± SD, n = 3; ND = no detection using test concentration; read-out: IC50 AChE
T1 construct: purchased Sigma-Aldrich Co., St. Louis, USA
Method: (§1) The AChE- and BChE-inhibitory, MTT, and Th T assays were analyzed using a UV–visible (VIS) spectrophotometer (Biotek, EPOCH2, Winooski, VT, USA), ensuring accurate measurements. For BACE1- and MAO-B-inhibitory assays, a multimode microplate reader (SpectraMax M3, Molecular Devices, San Jose, CA, USA) was employed, providing precise readings. Analytical-grade DMSO from DEAJUNG Chemical, Korea, served as a solvent in the bioassays. Reagents and solvents, including AChE from electric eel, acetylthiocholine iodide (ATCh), BChE from equine serum, S-butyrylthiocholine iodide (BTCh), 5,5′-dithiobis [2-nitrobenzoic acid] […] Additionally, the BACE1-inhibitory assay utilized the BACE1 (β-secretase) FRET assay kit from PanVera® Corporation, Madison, USA, while the MAO-B-inhibitory assay employed the MAO-B Inhibitor Screening Kit (Fluorometric) ab284511 from Abcam plc Co., Cambridge, UK.
(§2) The inhibitory activities against cholinesterases (AChE and BChE) were evaluated using a spectrophotometric method previously developed by Ellman et al.. Specifically, ATCh and BTCh were used as substrates to measure the inhibitory effects on AChE and BChE, respectively. The assay mixture consisted of 140 μL of 0.1 M sodium phosphate buffer at pH 7.8, 20 μL of a 0.38 U/mL solution of either AChE or BChE, and 20 μL of the test sample solution. This mixture was thoroughly mixed and then incubated at room temperature for 15 min. […] Reactions were initiated by adding 10 μL of 0.5 mM DTNB and 10 μL of either 0.6 mM ATCh or BTCh. ChE-inhibitory activity was monitored by measuring the formation of the yellow 5-thio-2-nitrobenzoate anion at 412 nm over 15 min (Epoch, BioTek, Winooski, VT, USA), resulting from the reaction of DTNB and thiocholine released from ATCh or BTCh. All reactions were conducted in 96-well microplates and performed in triplicate. The percentage of inhibition (%) was determined using the following formula: inhibition (%)={(Ac−As)/Ac}×100 , where Ac represents the enzyme activity in the absence of the test sample, and As represents the enzyme activity in the presence of the test sample. The ChE-inhibitory activities of each sample were quantified in terms of IC50, which was calculated from the log–dose inhibition curve.

BChE from equine serum = biological target: T2, BChE from equine serum (Equus caballus, UniProt P81908); experiment: biochemical; assay type: biochemical; conditions: isolated compounds; mean ± SD, n = 3; ND = no detection using test concentration; read-out: IC50 BChE
T2 construct: BChE from equine serum; purchased Sigma-Aldrich Co., St. Louis, USA; host or cells: equine serum
T2 sequence (P81908 whole entry): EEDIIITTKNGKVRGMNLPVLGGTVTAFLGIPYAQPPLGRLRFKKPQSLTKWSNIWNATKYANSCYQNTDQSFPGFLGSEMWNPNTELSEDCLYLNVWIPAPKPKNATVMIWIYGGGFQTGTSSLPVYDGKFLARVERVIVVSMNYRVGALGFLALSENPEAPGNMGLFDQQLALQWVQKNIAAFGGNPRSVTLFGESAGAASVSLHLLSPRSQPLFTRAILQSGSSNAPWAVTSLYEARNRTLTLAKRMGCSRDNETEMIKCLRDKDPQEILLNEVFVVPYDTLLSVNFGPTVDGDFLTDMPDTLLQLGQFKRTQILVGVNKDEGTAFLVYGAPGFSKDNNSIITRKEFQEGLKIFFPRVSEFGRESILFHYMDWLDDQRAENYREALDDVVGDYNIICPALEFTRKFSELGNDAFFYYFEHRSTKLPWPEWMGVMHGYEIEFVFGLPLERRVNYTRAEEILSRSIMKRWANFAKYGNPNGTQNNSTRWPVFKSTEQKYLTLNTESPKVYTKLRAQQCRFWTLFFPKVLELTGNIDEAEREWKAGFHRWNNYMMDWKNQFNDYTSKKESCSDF
Method: as §1, §2

sAPPβ = experiment: Western blot of sAPPβ levels in APP-CHO cells; assay type: cell-based, Chinese hamster; conditions: 1.0 μM, 24 h
Method: APP-CHO cells were seeded in six-well plates at a density of 6 × 10^5 cells/1000 μL of medium per well and incubated at 37 °C overnight for cell attachment. Then, the medium was replaced with FBS-free RPMI 1640 for 1 h, followed by treatment with test samples at 37 °C. After 24 h, the cells were washed with PBS and lysed in Laemmli sample buffer. The collected cell lysates were boiled at 100 °C for 10 min. For Western blot analysis, 20 μg of proteins were separated by 7.5% SDS-PAGE and transferred to a PVDF membrane using Trans-Blot® Turbo TM (Bio-Rad, Hercules, CA, USA). The membrane was blocked with 5% skim milk in PBS for 1 h and incubated with primary antibodies overnight at 4 °C. The primary antibodies used were sAPPβ antibody, BACE1 antibody, and α-tubulin antibody diluted at 1:1000, 1:1000, and 1:25,000, respectively. After washing with PBS-T (0.1% Tween 20 in PBS) three times for 10 min each, secondary antibodies, diluted to 1:2500, were incubated for 1 h. Protein detection was performed using ECL solution reagent and protein visualization (ChemiDoc^TM XRS+., Bio-Rad, Hercules, CA, USA). The signal intensity of the bands was quantified and normalized to the signal intensity of the α-tubulin band. Results were expressed as a percentage of DMSO-treated control.

Aβ1-42 [1] = biological target: T3, Aβ1-42 (Homo sapiens, UniProt P05067); experiment: Thioflavin T assay, Aβ aggregation; assay type: biochemical; conditions: 24 h, Aβ1-42 20 μM
T3 construct: Aβ1-42 used for the Th T assay was purchased from GL Biochem, Shanghai, China; purchased GL Biochem, Shanghai, China
T3 sequence (P05067 672-713 limits assumed): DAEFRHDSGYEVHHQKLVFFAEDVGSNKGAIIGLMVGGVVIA
Method: (§3) The Th T assay was conducted to assess the aggregation of Aβ into oligomers and fibrils. Aβ1-42 was dissolved in DMSO at a concentration of 1 mg/mL, and test samples were also dissolved in DMSO. Aβ1-42 (20 μM) was incubated with various concentrations of test samples at 37 °C for 24 h to evaluate the effects of test samples on Aβ aggregation. Subsequently, 3 μM of Th T was added, and fluorescence was measured after 30 min using an E-max precision microplate reader with excitation at 442 nm and emission at 485 nm (Epoch, BioTek, Winooski, VT, USA). Aβ treated with DMSO only served as a control, and each assay was performed in triplicate. Then, the Th T assay was performed to assess the effects of test samples on the disaggregation of preformed Aβ aggregates. Briefly, 20 μM of Aβ1-42 was incubated at 37 °C for 24 h. Various concentrations of test samples were then added and incubated at 37 °C for an additional 24 h. Subsequently, 3 μM of Th T was added, and fluorescence was measured after 30 min using an E-max precision microplate reader with excitation at 442 nm and emission at 485 nm (Epoch, BioTek, Winooski, VT, USA). Aβ treated with DMSO only served as a control, and each assay was performed in triplicate.

Aβ1-42 [2] = biological target: T3, Aβ1-42; experiment: Thioflavin T assay, disaggregation of preformed Aβ aggregates; assay type: biochemical; conditions: 24 h with Aβ pre-aggregated for 24 h
Method: as §3

T1 sequence (O42275 24-633): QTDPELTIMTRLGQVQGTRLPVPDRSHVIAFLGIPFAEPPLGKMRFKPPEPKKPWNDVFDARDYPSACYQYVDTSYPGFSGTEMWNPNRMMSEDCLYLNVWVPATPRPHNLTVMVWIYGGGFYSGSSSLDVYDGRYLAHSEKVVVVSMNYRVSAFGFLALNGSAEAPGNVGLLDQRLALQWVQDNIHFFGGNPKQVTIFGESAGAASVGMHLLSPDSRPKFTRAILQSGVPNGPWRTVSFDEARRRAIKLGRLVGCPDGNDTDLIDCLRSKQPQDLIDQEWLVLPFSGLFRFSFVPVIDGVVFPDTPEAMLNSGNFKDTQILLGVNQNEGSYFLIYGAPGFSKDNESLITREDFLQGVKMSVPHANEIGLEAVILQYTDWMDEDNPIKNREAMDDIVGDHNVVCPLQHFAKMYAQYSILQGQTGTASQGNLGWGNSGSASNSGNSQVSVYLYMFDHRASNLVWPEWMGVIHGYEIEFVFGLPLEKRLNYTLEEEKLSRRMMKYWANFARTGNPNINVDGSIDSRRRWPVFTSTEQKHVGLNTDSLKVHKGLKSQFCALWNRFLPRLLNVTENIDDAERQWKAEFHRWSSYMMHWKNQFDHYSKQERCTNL

SMILES | IC50 (AChE from electric eel) [µM] | IC50 (BChE from equine serum) [µM] | reduction of sAPPβ levels compared to DMSO-treated controls (sAPPβ) [%] | decrease of Aβ aggregation relative to DMSO-treated control (Aβ1-42 [1]; 1.0 μM) | degradation of preformed Aβ aggregates (Aβ1-42 [2]; 1.0 μM) | Aβ aggregation reduced to % of the levels in the DMSO-treated control (Aβ1-42 [1]; 0.5 μM) [%] | decrease of Aβ aggregation relative to DMSO-treated control (Aβ1-42 [1]; 0.5 μM) [%] | Aβ aggregation reduced to % of the levels in the DMSO-treated control (Aβ1-42 [1]; 1.0 μM) | degradation of preformed Aβ aggregates (Aβ1-42 [2]; 0.5 μM) [%]
C[C@@H]1O[C@@H](Oc2c(-c3ccc(O)cc3)oc3cc(O[C@@H]4O[C@H](CO)[C@@H](O)[C@H](O)[C@H]4O)cc(O)c3c2=O)[C@H](O)[C@H](O)[C@H]1O [Compound 6, kaempferol 3-O-rhamnoside 7-O-glucoside] | 353.43 ± 0.32 | 32.6 ± 5.66 | 30 | approximately 40% | approximately 45% | – | – | – | –
O=c1c(O[C@@H]2O[C@H](CO)[C@@H](O)[C@H](O)[C@H]2O)c(-c2ccc(O)cc2)oc2cc(O[C@@H]3O[C@@H](CO)[C@H](O)[C@H]3O)cc(O)c12 [Compound 7, kaempferol 3-o-b-d-glucopyranoside-7-o-a-L-arabinofuranoside] | 47.33 ± 0.22 | 28.8 ± 0.31 | 30 | ~80% | – | ~55 | 55 | approximately 80% | ~60
